Broadly, the Ki is a dissociation constant, usually derived from enzyme kinetics or from competition with a known ligand. High values mean lower affinity, low ones higher affinity. The IC50 is the concentration that gives 50% inhibition. A low value points to inhibition by little substance.

Marks after values point to notes of the source that are not given here.

Assay [1] in a line: DPPH radical scavenging activity assay. The following applies: mean ± SD; for IC50: isolated compounds, test concentrations 15.625 to 500 μM. On the procedure: The DPPH radical scavenging activity assay was determined according to the reported method with minor modifications. Briefly, extract and four fractions were dissolved in methyl alcohol at concentrations ranging from 62.5 to 1000 μg/mL, which were prepared to mix with a methyl alcohol solution of DPPH (0.2 mM, 100 μL) on a 96-well plate. After that, shaken gently and stood at room temperature for 30 min, the optical density (OD) 517 nm in each well were determined by a microplate reader. Triplicates of each sample were run, and the mean values were calculated. Ascorbic acid was chosen as positive control. The percentage inhibition (%) for each sample was calculated by the following formula: (1) Inhibition %=1−Abssamples−Abscontrol/Absblank ×100%.
DPPH solution was replaced by a methanol solution, which was used as control, and samples were replaced by the methanol solution as the black. All the results were expressed as means ± standard deviation (SD).
The antioxidant and α-glucosidase inhibitory activities of each isolated compound at concentrations ranging from 15.625 to 500 μM (DPPH) and from 125 to 2000 μM (α-glucosidase inhibitory), respectively, were determined using the methods described in Section 2.3.
On the technique in general: Loss of DPPH colour is used to gauge radical scavenging.

The target in the next assay is α-glucosidase. In words: Inhibitory kinetic analysis (Lineweaver-Burk and Dixon plots). Format: biochemical, Baker's yeast. Particulars: substrate 0.8-5.0 mM, enzyme 1.3 U/mL; for Ki: determined by Dixon plots; for α-Glucosidase inhibitory Inhibition mode: determined by Lineweaver-Burk plots. As for the experimental part:
The kinetic mechanisms of active compounds 1 and 2 towards α-glucosidase were determined by the graphical views of Dixon and Lineweaver-Burk plots. The concentration ranges for the substrates were 0.8-5.0 mM. The concentration of the enzyme was kept constant at 1.3 U/mL. Lineweaver-Burk plots were established to evaluate the type of inhibition. Dixon plots were used to calculate inhibitory constant (Ki) values of the tested compounds. Each kinetic analysis was implemented in triplicate from which mean Ki values.

For assay [2], the target named is α-Glucosidase from Baker's yeast. Nature of the assay: α-Glucosidase inhibitory assay (p-NPG substrate, 96-well plate). Format: biochemical. The following applies: isolated compounds; for IC50: test concentrations 125 to 2000 μM, mean ± SD. On the procedure:
The α-glucosidase inhibitory assay was performed on a 96-well plate by using a microplate reader according to the published method with minor modifications. […] […] After 5 min incubation at 37°C, 20 μL of 4-pNPG (p-nitrophenyl-α-D-glucopyranoside) (2.5 mM) was added and incubated for 15 min; then, 80 μL of Na2CO3 (0.2 M) was added to stop the reaction. The optical density (OD) values were determined using a microplate reader at 405 nm. Triplicates of each sample were run, and the mean values were calculated. […] The IC50 was calculated by using SPSS software.

As to `O=C1O[C@H]([C@@H](O)CO)C(O)=C1O` [Ascorbic acid, reference compound], the “DPPH assay IC50” value in assay [1] (extract and fractions, test concentrations 62.5 to 1000 μg/mL, n = 3) is 9.37 ± 0.84^e μg/mL.

Take `O=C(OC[C@H]1O[C@@H](OC(=O)c2cc(O)c(O)c(O)c2)[C@H](OC(=O)c2cc(O)c(O)c(O)c2)[C@@H](OC(=O)c2cc(O)c(O)c(O)c2)[C@@H]1OC(=O)c1cc(O)c(O)c(O)c1)c1cc(O)c(O)c(O)c1` [Compound 1, 1,2,3,4,6-Penta-O-galloyl-β-D-glucoside]: at α-glucosidase, the affinity corresponds to a Ki of 0.73295 ± 0.00022 µM and the “α-Glucosidase inhibitory Inhibition mode” value is listed as “Noncompetitive”. Inhibition in assay [1] was half-maximal at 2.93 ± 1.06 µM (IC50).

On to `O=C(OCC1OC(OC(=O)c2cc(O)c(O)c(O)c2)C(OC(=O)c2cc(O)c(O)c(O)c2)C(OC(=O)c2cc(O)c(O)c(O)c2)C1OC(=O)c1cc(O)c(O)c(O)c1)c1cc(O)c(O)c(O)c1` [Compound 2, 1,2,3,4,6-Penta-O-galloyl-α-D-glucoside], for which, on α-glucosidase, affinity was put at a Ki of 0.09837 ± 0.00031 µM and the “α-Glucosidase inhibitory Inhibition mode” value is given as “Competitive”. In assay [1], 22.3 ± 0.74 µM corresponded to half-maximal inhibition (IC50). For the molecule `O=C(OC[C@H]1O[C@@H](OC(=O)c2cc(O)c(O)c(O)c2)[C@H](OC(=O)c2cc(O)c(O)c(O)c2)[C@@H](OC(=O)c2cc(O)c(O)c(O)c2)[C@@H]1O)c1cc(O)c(O)c(O)c1` [Compound 3, 1,2,3,6-Tetra-O-galloyl-β-D-glucoside], the IC50 amounted to 23.7 ± 0.52 µM in assay [1] and 243.3 ± 1.43 µM in assay [2]. As for `O=C(O[C@@H]1O[C@H](CO)[C@@H](O)[C@H](O)[C@H]1O)c1cc(O)c(O)c(O)c1` [Compound 4, 1-O-(3,4,5-Trihydroxybenzoyl)-β-D-glucoside], 52.8 ± 0.93 µM corresponded to half-maximal inhibition in assay [1] (IC50). Molecule `COC(=O)c1cc(O)c(O)c(O)c1` [Compound 5, Methyl galate] had an IC50 in assay [1] of 32.3 ± 0.48 µM. Also, the “α-glucosidase inhibitory activity (in words)” value in assay [2] is reported as “no inhibitory activity”. For `O=C(O)c1cc(O)c(O)c(O)c1` [Compound 6, Gallic acid], the results for the concentration for half-maximal inhibition (IC50) in assay [1] and in assay [2] were 37.8 ± 2.52 µM and 313 ± 3.71 µM, respectively.

For the molecule `O=C(O)c1ccc(O)c(O)c1` [Compound 7, 3,4-Dihydroxybenzoic acid], the IC50 is 38.2 ± 1.03 µM in assay [1] and 425 ± 31.5 µM in assay [2]. In assay [1], `O=C(OCC(O)CO)c1cc(O)c(O)c(O)c1` (stereo not shown) [Compound 9, 1-Glycerol gallate] displayed an IC50 of more than 500 µM. In addition, in assay [2], the “α-glucosidase inhibitory activity (in words)” value is on record as “no inhibitory activity”. Molecule `CCOC(=O)c1cc(O)c(O)c(O)c1` [Compound 10, Ethyl gallate] came in with an IC50 in assay [1] of 38 ± 1.94 µM. Moreover, the “α-glucosidase inhibitory activity (in words)” value in assay [2] was “no inhibitory activity”.

Molecule `COc1cc(/C=C/C(=O)O)ccc1O` [Compound 11, Ferulic acid] showed an IC50 in assay [1] of 95 ± 2.41 µM.

`O=C(O)/C=C/c1ccc(O)c(O)c1` [Compound 12, Caffeic acid] gave an IC50 in assay [1] of 36.91 ± 0.3 µM. Turning to `O=c1c(O)c(-c2ccc(O)c(O)c2)oc2cc(O)cc(O)c12` [Compound 13, Quercetin], the IC50 in assay [1] was found to be 60 ± 0.82 µM; in assay [2] it was 138 ± 7.07 µM.

Turning to `Oc1cc(O)c2c(c1)O[C@H](c1ccc(O)c(O)c1)[C@H](O)C2` [Compound 16, Epicatechin], 40.1 ± 0.82 µM corresponded to half-maximal inhibition in assay [1] (IC50).

The record behind these values is paper PMC7785352, “Antioxidant and α-Glucosidase Inhibitory Activities Guided Isolation and Identification of Components from Mango Seed Kernel” (Oxidative Medicine and Cellular Longevity, 2020).
